These results are taken from PubChem BioAssay (NCI).

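Compound exposure: 48 hours, 5 concentrations, 96-well plates. TGI marks complete inhibition of growth.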

Test systems include NCI-H522 lung; DU-145 prostate; A549 NSCLC; NCI-H23 lung; NCI/ADR-RES ovarian; IGROV1 ovarian; MOLT-4 leukemia; U251 CNS; OVCAR-4 ovarian; LOX IMVI melanoma.
Common to all, as to assay: NCI anticancer screen, dose series, 48 h

In the case of `COc1nc(N=P(c2ccccc2)(c2ccccc2)c2ccccc2)cc(=O)n1C`, the TGI in the test with NCI-H522 lung, with DU-145 prostate, in the test with A549 NSCLC, with NCI-H23 lung, with NCI/ADR-RES ovarian and in the test on IGROV1 ovarian was greater than 100 µM each time. Further, the TGI with MOLT-4 leukemia, in the test on U251 CNS, in the test with OVCAR-4 ovarian and in the test with LOX IMVI melanoma was greater than 100 µM in each case.
`O=C1N/C(=N\N=C\c2ccccc2)C(c2ccccc2)O1` (configuration not stated): the TGI in the test with NCI-H522 lung, with DU-145 prostate, with A549 NSCLC, in the test on NCI-H23 lung, in the test with NCI/ADR-RES ovarian and in the test with IGROV1 ovarian was greater than 100 µM in each case. In addition, the TGI in the test on MOLT-4 leukemia, with U251 CNS, in the test on OVCAR-4 ovarian and in the test on LOX IMVI melanoma was greater than 100 µM throughout.
Take `FC(F)(F)c1ccc(C2ON=C(c3ccccc3)N2C23CC4CC(CC(C4)C2)C3)cc1` (configuration not stated): the TGI in the test on NCI-H522 lung, with DU-145 prostate, in the test with A549 NSCLC, with NCI-H23 lung, with NCI/ADR-RES ovarian and with IGROV1 ovarian was greater than 10 µM each time. For the same compound, the TGI in the test on MOLT-4 leukemia, with U251 CNS, in the test on OVCAR-4 ovarian and in the test on LOX IMVI melanoma was greater than 10 µM in each case.
Regarding `O=C/C(=C1/C=Cc2cc([N+](=O)[O-])ccc2S1)c1ccccc1`, the TGI in the test with NCI-H522 lung, with DU-145 prostate, with A549 NSCLC, with NCI-H23 lung, with NCI/ADR-RES ovarian and in the test with IGROV1 ovarian was greater than 100 µM each time. In addition, the TGI with MOLT-4 leukemia, in the test with U251 CNS, in the test with OVCAR-4 ovarian and in the test with LOX IMVI melanoma was greater than 100 µM throughout.
`Cn1c(=O)c2[nH]c(N=O)nc2n(C)c1=O`: the TGI in the test on NCI-H522 lung, with DU-145 prostate, in the test on A549 NSCLC, in the test with NCI-H23 lung, in the test with NCI/ADR-RES ovarian and in the test on IGROV1 ovarian was greater than 100 µM throughout. Further, the TGI in the test with MOLT-4 leukemia, with U251 CNS, in the test on OVCAR-4 ovarian and in the test with LOX IMVI melanoma was greater than 100 µM each time.
Consider `COC(=O)c1ccc2c(c1)CC1(C2)Cc2cc3c(cc2C1)CCC3`, for which the TGI in the test on NCI-H522 lung, with DU-145 prostate, in the test on A549 NSCLC, with NCI-H23 lung, in the test with NCI/ADR-RES ovarian and with IGROV1 ovarian was greater than 100 µM throughout. The TGI with MOLT-4 leukemia, with U251 CNS, in the test with OVCAR-4 ovarian and in the test with LOX IMVI melanoma was greater than 100 µM in each case.
In the case of `CCC(NC(C)c1ccccc1)C(=O)c1ccc(OCc2ccccc2)c(OCc2ccccc2)c1` (configuration not stated), the TGI in the test with NCI-H522 lung, in the test on DU-145 prostate, in the test with A549 NSCLC, in the test with NCI-H23 lung, in the test with NCI/ADR-RES ovarian and in the test with IGROV1 ovarian was greater than 100 µM throughout. For the same compound, the TGI in the test with U251 CNS, in the test on OVCAR-4 ovarian and in the test with LOX IMVI melanoma was greater than 100 µM throughout.
On to `CO/C(N)=C(\C#N)N=Cc1ccc2ccccc2c1`, for which the TGI in the test with NCI-H522 lung, with DU-145 prostate, in the test with A549 NSCLC, in the test on NCI-H23 lung, with NCI/ADR-RES ovarian and with IGROV1 ovarian was greater than 100 µM in each case. Moreover, the TGI with MOLT-4 leukemia, in the test with U251 CNS and with LOX IMVI melanoma was greater than 100 µM throughout.
Turning to `COc1ccc(Nc2nc3ccccc3n3cccc23)cc1OC`, the TGI in the test on NCI-H522 lung stood at 31.2 µM; in the test with DU-145 prostate, 35.6 µM; in the test on A549 NSCLC, 43.6 µM; in the test with NCI-H23 lung, 27.9 µM; in the test on NCI/ADR-RES ovarian it was 56.1 µM; in the test on IGROV1 ovarian it was 52.3 µM. The results for the TGI in the test with MOLT-4 leukemia, in the test with U251 CNS and in the test on LOX IMVI melanoma were 43.3 µM, 35.9 µM and 27.4 µM, respectively.
On to `Clc1ccc(Nc2nnc(CNc3ccc(-c4nnc(Nc5ccc(Cl)cc5)s4)cc3)s2)cc1`, for which the TGI in the test with NCI-H522 lung was 43.2 µM; with DU-145 prostate, greater than 100 µM; in the test on A549 NSCLC, greater than 100 µM; in the test with NCI-H23 lung, greater than 100 µM; in the test on NCI/ADR-RES ovarian, greater than 100 µM; with IGROV1 ovarian, greater than 100 µM. Moreover, the TGI in the test on MOLT-4 leukemia, in the test with U251 CNS and in the test on OVCAR-4 ovarian was greater than 100 µM in each case.
For the compound `O[C@]12C=C(c3nccc4c3[nH]c3ccccc34)[C@@H]3CCN(CCCC/C=C\CC1)C[C@@]31CC3/C=C\CCCCN3[C@H]12` (some centres not stated), the TGI stood at 2.21 µM with NCI-H522 lung; 2.86 µM with DU-145 prostate; 11.2 µM in the test on A549 NSCLC; 2.53 µM in the test on NCI-H23 lung; 4.16 µM in the test with NCI/ADR-RES ovarian; 2.28 µM with IGROV1 ovarian. The TGI was 1.79 µM in the test on U251 CNS, greater than 25.1 µM in the test on OVCAR-4 ovarian and 0.84 µM in the test on LOX IMVI melanoma.
As to `CCOC(=O)N/N=C(/N)c1cccc(Br)c1`, the TGI in the test on NCI-H522 lung, in the test on DU-145 prostate, with A549 NSCLC, in the test on NCI-H23 lung, in the test on NCI/ADR-RES ovarian and with IGROV1 ovarian was greater than 100 µM each time. Further, the TGI in the test on MOLT-4 leukemia, with OVCAR-4 ovarian and with LOX IMVI melanoma was greater than 100 µM throughout.
Consider `COc1ccc(C2=Nc3c(nc(OC)[nH]c3=O)NC(c3ccccc3)C2)cc1` (configuration not stated), for which the TGI in the test with NCI-H522 lung, with DU-145 prostate, in the test on A549 NSCLC, in the test with NCI-H23 lung, with NCI/ADR-RES ovarian and in the test on IGROV1 ovarian was greater than 100 µM each time. For the same compound, the figures for the TGI in the test with MOLT-4 leukemia, in the test on U251 CNS and with LOX IMVI melanoma were greater than 100 µM, 65.6 µM and 70.3 µM, respectively.
`O=C1N=C2SC=C(NC(=S)Nc3ccccc3)N2NC12c1ccccc1-c1ccccc12`: the TGI with NCI-H522 lung, in the test on DU-145 prostate, in the test with A549 NSCLC, in the test with NCI-H23 lung, in the test with NCI/ADR-RES ovarian and with IGROV1 ovarian was greater than 10 µM each time. Besides, the TGI in the test with MOLT-4 leukemia, in the test with OVCAR-4 ovarian and in the test on LOX IMVI melanoma was greater than 10 µM throughout.
